We go through 1 compound from patent US20040028749A1, “Treating inflammation and associated complications” (priority 2000, published 2004).

This assay concerns the target MPO (Homo sapiens, UniProt P05164). In words: Stopped-flow kinetics of NO with MPO. It counts as biochemical. More on the design: MPO was initially purified from detergent extracts of human leukocytes; from tissue; host or cells: human leukocytes (detergent extracts). The protocol:
[…] EPO was isolated from porcine whole blood obtained fresh at the slaughterhouse as described by Jorg et al. (1982) Biochim Biophys Acta 701:185-191. EPO was assayed by guaiacol oxidation (see Klebanoff et al. (1984) Methods Enzymol. 105:399-403). […] The concentration of the MPO dimer was calculated as half the indicated concentration of heme-like chromophore. Bovine LPO was obtained from Worthington Biochemistry Corporation (Lakewood, N.J.) and used without further purification.
To examine the kinetics of interaction between NO and MPO Compounds I and II, stopped-flow spectroscopy was used. The kinetics of Compound II formation and decay in the absence and presence of different NO concentrations were performed using a dual syringe stopped-flow instrument obtained from Hi-Tech Ltd (model SF-51). Measurements were carried out under anaerobic atmosphere, at 25° C. and monitored at 455 nm (an isosbestic point of Compound I and MPO ground state) following rapid mixing of equal volumes of an H202-containing buffer solution and an MPO solution that contained different NO concentrations. The time course of absorbance change was fit to either single or double exponential functions as indicated. The rate constants for the formation (kon) and decay (koff) of the MPO-Fe(III)-NO complex in the presence of plasma levels of the alternative substrate Cl^− (100 mM) were determined by monitoring absorbance change at 430 nm at 10° C. […]
Rapid kinetic studies were initially performed under Cl^− free conditions using 2 co-substrates, a fixed (low) level of H2O2 and variable levels of NO. […] The subsequent decrease in absorbance at 455 nm observed was also fit to a single exponential function with a rate constant of […] and was attributed to the decay of compound II.
(An anaerobic solution containing sodium phosphate buffer (200 mM, pH 7.0) supplemented with H2O2 (20 μM) was rapidly mixed with an equal volume of buffer containing 0.86 μM of MPO-Fe(III) and differing concentrations of NO at 25° C.) NO was readily used as a one e^− substrate by Compound I, as indicated by the rapid buildup of MPO Compound II. […]
In a parallel series of experiments, the influence of NO on the kinetics of MPO Compound II buildup, duration, and decay during steady-state catalysis in the presence of plasma levels of the competing substrate Cl^− was examined. Reactions were again performed under anaerobic conditions and the absorbance change at 455 nm monitored following rapid mixing of enzyme and various concentrations of NO (2.5, 12.5, 25 and 50 μM final) in the presence of H202 (10 μM final) and Cl^− (100 mM final). Anaerobic spectra of MPO-Fe(III) were recorded at 25° C. in septum-sealed quartz cuvettes that were equipped with a quick-fit joint for attachment to a vacuum system. […]

Chain of MPO (P05164 279-745 limits assumed): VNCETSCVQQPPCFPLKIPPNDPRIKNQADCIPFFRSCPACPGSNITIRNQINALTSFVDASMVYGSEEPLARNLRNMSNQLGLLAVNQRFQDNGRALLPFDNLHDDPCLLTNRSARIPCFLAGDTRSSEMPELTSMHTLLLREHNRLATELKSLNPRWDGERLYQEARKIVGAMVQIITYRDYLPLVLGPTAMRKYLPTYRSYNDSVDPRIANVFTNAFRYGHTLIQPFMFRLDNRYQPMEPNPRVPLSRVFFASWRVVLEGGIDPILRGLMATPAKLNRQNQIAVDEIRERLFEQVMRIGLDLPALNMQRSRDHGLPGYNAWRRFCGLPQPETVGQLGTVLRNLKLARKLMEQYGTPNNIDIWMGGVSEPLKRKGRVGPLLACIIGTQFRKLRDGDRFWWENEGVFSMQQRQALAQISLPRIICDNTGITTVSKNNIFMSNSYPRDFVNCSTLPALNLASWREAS
Chain of MPO (P05164 165-273 limits assumed): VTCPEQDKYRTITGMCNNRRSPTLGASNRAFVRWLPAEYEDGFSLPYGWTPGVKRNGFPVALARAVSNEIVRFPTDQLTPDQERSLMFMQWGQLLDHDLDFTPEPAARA

As to `[N]=O` [NO, nitric oxide], where the note is “10 μM H2O2, Cl^− free, 25° C.”, the “enhancement of rate of MPO Compound II accumulation” value was about 20 fold. For the same compound, the off-rate (koff) (100 mM Cl^−, 11° C., read-out: koff for NO binding to MPO-Fe(III)) amounted to 22.3 s⁻¹. Besides, the kon (100 mM Cl^−, 11° C., read-out: kon for NO binding to MPO-Fe(III)) is 150000 M⁻¹ s⁻¹. Also, the “second order rate constant of MPO Compound II decay” value (Cl^− free, 25° C.) is 8×10^3 M^−1S^−1.

A word on the koff: it is the rate constant with which the complex falls apart. One may read the kon as the second-order rate constant of association.
